{"source": "patent US10213524B2", "about": "“Coating comprising strontium for body implants” (ELOS MEDTECH PINOL A/S, priority 2012, dated 2019)", "origin": "cited, not measured here", "tested_on": "mice", "conditions": "intravenous injection", "data": [{"smiles": "CC(=O)[O-].CC(=O)[O-].[Sr+2]", "note": "[strontium acetate]", "values": [{"measurement": "toxic concentration (can cause mortality)", "result": "~40", "unit": "mg/kg Sr"}]}]}
